Patent US10640495B2, “Heterocycle derivatives having TrkA inhibitory activity” (Shionogi & Co., Ltd., priority 2015, dated 2020)

Biological target: human TrkA (Homo sapiens (Human), UniProt P04629)
Assay: Human TrkA inhibition assay (Test Example 2)
Assay type: biochemical
Conditions: Table 154, human TrkA inhibition; read-out: IC50
Method in brief: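 Mobility-shift readout of phosphorylated versus unphosphorylated fluorescent peptide gave conversion ratio, normalized to DMSO and no-enzyme wells; IC50 by logistic fit of 10- or 15-point 3-fold dilutions. Conditions: 1 nmol/L enzyme, 15 min compound preincubation, then 500 μmol/L ATP plus 1.5 μmol/L peptide, 120 min, 37 °C.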

Chain of human TrkA (P04629 440-796): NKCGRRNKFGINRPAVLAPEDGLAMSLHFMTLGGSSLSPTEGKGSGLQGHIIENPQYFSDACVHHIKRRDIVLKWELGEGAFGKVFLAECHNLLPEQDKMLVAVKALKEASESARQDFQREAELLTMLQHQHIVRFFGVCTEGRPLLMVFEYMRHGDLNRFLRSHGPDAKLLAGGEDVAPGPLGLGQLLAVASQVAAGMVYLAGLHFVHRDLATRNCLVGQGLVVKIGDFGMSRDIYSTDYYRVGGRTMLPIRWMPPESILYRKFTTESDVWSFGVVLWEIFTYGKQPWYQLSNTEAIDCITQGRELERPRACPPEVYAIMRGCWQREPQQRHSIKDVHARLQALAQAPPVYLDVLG

IC50 [nM] | SMILES
< 100 | COCCN1C[C@@H](NC(=O)Nc2c(C)c(-c3ccc(N=S(C)(C)=O)cc3)nn2-c2ccccc2)[C@H](c2ccc(F)c(F)c2)O1 [Compound I-227]
< 100 | COCCN1C[C@@H](NC(=O)Nc2c(C)c(-c3cnc4c(ccc(=O)n4C)c3)nn2-c2ccccc2)[C@H](c2ccc(F)c(F)c2)O1 [Compound I-229]
< 100 | COCCN1C[C@@H](NC(=O)Nc2c(C)c(-c3ccnc(C(=O)NO)c3)nn2-c2ccccc2)[C@H](c2cnc(F)c(F)c2)O1 [Compound I-231]
< 100 | COCC[C@@H]1C[C@@H](NC(=O)Nc2c(C)c(-c3cnn(C)c3)nn2-c2ccccc2)[C@H](c2ccnc(F)c2)O1 [Compound I-235]
< 100 | COCC[C@@H]1C[C@@H](NC(=O)Nc2c(C)c(-c3cnc(Cl)nc3)nn2-c2ccccc2)[C@H](c2ccnc(F)c2)O1 [Compound I-248]
< 100 | COCC[C@@H]1C[C@@H](NC(=O)Nc2c(C)c(-c3cc(C(=O)OC)c(=O)n(C)c3)nn2-c2ccccc2)[C@H](c2ccnc(F)c2)O1 [Compound I-251]
< 100 | COCCN1C[C@@H](NC(=O)Nc2c(C)c(-c3cnc(C(N)=O)c(C)c3)nn2-c2ccccc2)[C@H](c2cnc(F)c(F)c2)O1 [Compound I-252]
< 100 | COCCN1C[C@@H](NC(=O)Nc2c(C)c(-c3cnc(C(=O)NC4CC4)c(C)c3)nn2-c2ccccc2)[C@H](c2cnc(F)c(F)c2)O1 [Compound I-254]
100 to 1000 | COCCN1C[C@H](NC(=O)Nc2c(C)c(-c3cnc(OC)nc3)nn2-c2ccccc2)[C@@H](c2cnc(F)c(F)c2)O1 [Compound I-263]
< 100 | CNC(=O)c1cc(-c2nn(-c3ccccc3)c(NC(=O)N[C@@H]3C[C@@H](CCOC)O[C@H]3c3ccnc(F)c3)c2C)cn(C)c1=O [Compound I-271]
< 100 | COCC[C@@H]1C[C@@H](NC(=O)Nc2c(C)c(-c3cc(C(=O)NC4CCOCC4)c(=O)n(C)c3)nn2-c2ccccc2)[C@H](c2ccnc(F)c2)O1 [Compound I-272]
< 100 | COCC[C@@H]1C[C@@H](NC(=O)Nc2c(C)c(-c3cnc4c(c3)c(C)nn4C)nn2-c2ccccc2)[C@H](c2ccnc(F)c2)O1 [Compound I-274]
< 100 | COCC[C@@H]1C[C@@H](NC(=O)Nc2c(C)c(-c3cnc4c(c3)ncn4C)nn2-c2ccccc2)[C@H](c2ccnc(F)c2)O1 [Compound I-276]
< 100 | COCCN1C[C@@H](NC(=O)Nc2c(C)c(-c3cc(-c4cn(Cc5ccc(OC)cc5)nn4)c(=O)n(C)c3)nn2-c2ccccc2)[C@H](c2ccc(F)c(F)c2)O1 [Compound I-277]
< 100 | COCC[C@@H]1C[C@@H](NC(=O)Nc2c(C)c(-c3cc(C)c(=O)n(C)c3)nn2-c2ccccc2)[C@H](c2ccnc(F)c2)O1 [Compound I-288]
< 100 | COCC[C@@H]1C[C@@H](NC(=O)Nc2c(C)c(-c3cnc(N(C)C(=O)OC(C)(C)C)nc3)nn2-c2ccccc2)[C@H](c2ccnc(F)c2)O1 [Compound I-289]
< 100 | COCC[C@@H]1C[C@@H](NC(=O)Nc2c(C)c(-c3cnc(N(C(=O)OC(C)(C)C)C4CC4)nc3)nn2-c2ccccc2)[C@H](c2ccnc(F)c2)O1 [Compound I-290]
< 100 | CNc1ncc(-c2nn(-c3ccccc3)c(NC(=O)N[C@@H]3C[C@@H](CCOC)O[C@H]3c3ccnc(F)c3)c2C)cn1 [Compound I-292]
< 100 | COCC[C@@H]1C[C@@H](NC(=O)Nc2c(C)c(-c3cnc(NC4CC4)nc3)nn2-c2ccccc2)[C@H](c2ccnc(F)c2)O1 [Compound I-293]
< 100 | COCCC1C[C@@H](NC(=O)Nc2c(C)c(-c3cnc(COC(=O)C(C)(C)C)nc3)nn2-c2ccccc2)[C@H](c2ccccc2)O1 (stereo partly shown) [Compound I-294]
100 to 1000 | COCCC1C[C@@H](NC(=O)Nc2c(C)c(OCC(C)(C)O)nn2-c2ccccc2)[C@H](c2ccccc2)O1 (stereo partly shown) [Compound I-295]
< 100 | COCCC1C[C@@H](NC(=O)Nc2c(C)c(-c3cnc(CO)nc3)nn2-c2ccccc2)[C@H](c2ccccc2)O1 (stereo partly shown) [Compound I-296]
< 100 | COCCN1C[C@@H](NC(=O)Nc2c(C)c(-c3ccc4nc(C(N)=O)cn4c3)nn2-c2ccccc2)[C@H](c2ccc(F)c(F)c2)O1 [Compound I-310]
< 100 | COCCN1C[C@@H](NC(=O)Nc2c(C)c(-c3cnc(C(N)=O)c(F)c3)nn2-c2ccccc2)[C@H](c2ccc(F)c(F)c2)O1 [Compound I-312]
< 100 | CNC(=O)c1ncc(-c2nn(-c3ccccc3)c(NC(=O)N[C@@H]3CN(CCOC)O[C@H]3c3ccc(F)c(F)c3)c2C)cc1F [Compound I-314]

Same assay, conditions: Table 155, human TrkA inhibition; read-out: IC50

IC50 [nM] | SMILES
< 100 | COCC[C@@H]1C[C@@H](NC(=O)Nc2c(C)c(-c3cnc4c(c3)c(=O)n(C)n4C)nn2-c2ccccc2)[C@H](c2ccnc(F)c2)O1 [Compound I-330]
< 100 | COCCN1C[C@@H](NC(=O)Nc2c(C)c(-c3cccc(CN=S(C)(C)=O)c3)nn2-c2ccccc2)[C@H](c2ccc(F)c(F)c2)O1 [Compound I-333]
< 100 | COCCN1C[C@@H](NC(=O)Nc2c(C)c(-c3ccc(N=S(C)(C)=O)nc3)nn2-c2ccccc2)[C@H](c2ccc(F)cc2)O1 [Compound I-334]
< 100 | COCCN1C[C@@H](NC(=O)Nc2c(C)c(-c3cnc4c(c3)nnn4C)nn2-c2ccccc2)[C@H](c2ccnc(F)c2)O1 [Compound I-342]
< 100 | COCCN1C[C@@H](NC(=O)Nc2c(C)c(N3CCN(C)C(=O)C3)nn2-c2ccccc2)[C@H](c2ccc(F)cc2)O1 [Compound I-345]
< 100 | COCCN1C[C@@H](NC(=O)Nc2c(C)c(-c3ccc(N4CCC(NC(C)=O)C4)nc3)nn2-c2ccccc2)[C@H](c2ccnc(F)c2)O1 (stereo partly shown) [Compound I-349]
< 100 | COCCN1C[C@@H](NC(=O)Nc2c(C)c(-c3cnc4c(c3)CCC4O)nn2-c2ccccc2)[C@H](c2ccnc(F)c2)O1 (stereo partly shown) [Compound I-353]
< 100 | COCCN1C[C@@H](NC(=O)Nc2c(C)c(-c3cnc(C)nc3)nn2-c2ccccc2)[C@H](c2cnc(F)c(F)c2)O1 [Compound I-358]
< 100 | COCCN1C[C@@H](NC(=O)Nc2c(C)c(-c3ccc4nc(C)nn4c3)nn2-c2ccccc2)[C@H](c2ccnc(F)c2)O1 [Compound I-359]
< 100 | COCCN1C[C@@H](NC(=O)Nc2c(C)c(-c3cnc(C)nc3)nn2-c2ccccc2)[C@H](c2cc(F)nc(F)c2)O1 [Compound I-361]
> 1000 | COCCN1C[C@H](NC(=O)Nc2c(C)c(-c3cnc(C)nc3)nn2-c2ccccc2)[C@@H](c2cc(F)nc(F)c2)O1 [Compound I-362]
< 100 | COCCN1C[C@@H](NC(=O)Nc2c(C)c(-c3ccc4nc(C)nn4c3)nn2-c2ccccc2)[C@H](c2cnc(F)c(F)c2)O1 [Compound I-363]
< 100 | CNC(=O)c1cc(-c2nn(-c3ccccc3)c(NC(=O)N[C@@H]3CN(CCOC)O[C@H]3c3ccc(F)c(F)c3)c2C)cnc1OC [Compound I-391]
< 100 | COCCN1C[C@@H](NC(=O)Nc2c(C)c(-c3cnc(OC)nc3)nn2-c2ccccc2)[C@H](c2ccc(F)c(F)c2)O1 [Compound I-407]

Same assay, conditions: human TrkA 1 nmol/L, ATP 500 μmol/L, 120 min at 37° C.; read-out: IC50 values (TrkA phosphorylation inhibition)

SMILES | IC50 [nM]
COCCN1C[C@@H](NC(=O)Nc2c(C)c(-c3ccnc(C(=O)NOC)c3)nn2-c2ccccc2)[C@H](c2cnc(F)c(F)c2)O1 [Compound I-233] | 1.5
COCC[C@@H]1C[C@@H](NC(=O)Nc2c(C)c(-c3cnc4c(cnn4C)c3)nn2-c2ccccc2)[C@H](c2ccnc(F)c2)O1 [Compound I-236] | 1.4
COCC[C@@H]1C[C@@H](NC(=O)Nc2c(C)c(-c3cnc(C)nc3)nn2-c2ccccc2)[C@H](c2ccnc(F)c2)O1 [Compound I-237] | 8.1
COCCN1C[C@@H](NC(=O)Nc2c(C)c(-c3cnn(C)c3)nn2-c2ccccc2)[C@H](c2cnc(F)c(F)c2)O1 [Compound I-245] | 3
CNC(=O)c1ncc(-c2nn(-c3ccccc3)c(NC(=O)N[C@@H]3CN(CCOC)O[C@H]3c3cnc(F)c(F)c3)c2C)cc1C [Compound I-253] | 1.3
COCCN1C[C@@H](NC(=O)Nc2c(C)c(-c3cnc4c(c3)[nH]c(=O)n4C)nn2-c2ccccc2)[C@H](c2cnc(F)c(F)c2)O1 [Compound I-258] | 0.48
COCCN1C[C@@H](NC(=O)Nc2c(C)c(-c3cnc(N=S(C)(C)=O)nc3)nn2-c2ccccc2)[C@H](c2ccc(F)c(F)c2)O1 [Compound I-268] | 0.55
COCC[C@@H]1C[C@@H](NC(=O)Nc2c(C)c(-c3cnc(OC)nc3)nn2-c2ccccc2)[C@H](c2ccnc(F)c2)O1 [Compound I-273] | 4.7
COCCN1C[C@@H](NC(=O)Nc2c(C)c(-c3cnc4c(c3)c(N=S(C)(C)=O)nn4C)nn2-c2ccccc2)[C@H](c2ccc(F)c(F)c2)O1 [Compound I-298] | 0.6

The next lines start with the values.

IC50 [nM] | SMILES
0.76 | CNC(=O)c1ncc(-c2nn(-c3ccccc3)c(NC(=O)N[C@@H]3CN(CCOC)O[C@H]3c3ccc(F)c(F)c3)c2C)cc1NC [Compound I-315]
1.2 | CNC(=O)c1cc(-c2nn(-c3ccccc3)c(NC(=O)N[C@@H]3C[C@@H](CCOC)O[C@H]3c3ccnc(F)c3)c2C)cnc1OC [Compound I-319]
2.4 | COCCN1C[C@@H](NC(=O)Nc2c(C)c(-c3cnc(OC)nc3)nn2-c2ccccc2)[C@H](c2ccnc(F)c2)O1 [Compound I-322]
2.5 | CNC(=O)c1ncc(-c2nn(-c3ccccc3)c(NC(=O)N[C@@H]3CN(CCOC)O[C@H]3c3ccnc(F)c3)c2C)cc1C [Compound I-325]
1.7 | COCC[C@@H]1C[C@@H](NC(=O)Nc2c(C)c(-c3cnc4c(c3)CC(=O)N4C)nn2-c2ccccc2)[C@H](c2ccnc(F)c2)O1 [Compound I-329]
1.2 | COCCN1C[C@@H](NC(=O)Nc2c(C)c(-c3ccc(CN=S(C)(C)=O)cc3)nn2-c2ccccc2)[C@H](c2ccc(F)c(F)c2)O1 [Compound I-332]
0.97 | COCCN1C[C@@H](NC(=O)Nc2c(C)c(N3CCN(C)C(=O)C3)nn2-c2ccccc2)[C@H](c2ccc(F)c(F)c2)O1 [Compound I-344]
